Test results published in PubChem BioAssay AID1329 (NMMLSC, 2008).
The source made the active and inactive calls. How the calls were made is not given here.

Each compound was assayed against Induced myeloid leukemia cell differentiation protein Mcl-1 (Homo sapiens) (UniProt Q07820) (assay: Mcl-1/Bim interaction regulators – biochemical, bead-based flow cytometry, multiplexed, human, dose response (AID 1329)). Conditions: Bim peptide-Mcl-1 binding, MCF.
Chain of Induced myeloid leukemia cell differentiation protein Mcl-1 (Homo sapiens) (Q07820 whole entry, looked up): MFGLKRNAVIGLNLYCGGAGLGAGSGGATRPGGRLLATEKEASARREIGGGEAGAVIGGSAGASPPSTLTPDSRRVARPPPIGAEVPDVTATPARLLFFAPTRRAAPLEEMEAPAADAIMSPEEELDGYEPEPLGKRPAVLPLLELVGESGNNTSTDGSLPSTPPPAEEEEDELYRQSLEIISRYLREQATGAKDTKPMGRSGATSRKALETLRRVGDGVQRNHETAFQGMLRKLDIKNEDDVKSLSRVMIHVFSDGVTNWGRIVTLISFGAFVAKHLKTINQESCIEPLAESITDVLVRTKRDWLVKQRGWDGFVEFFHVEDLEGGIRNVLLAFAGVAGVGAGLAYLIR

Percent span, inactive:
O=C(NC1=C(Nc2ccc(F)cc2)C(=O)c2ccccc2C1=O)c1ccc(Cl)cc1
COc1ccc(N=C2NC(=O)/C(=C\C=C\c3ccco3)S2)cc1
COc1ccc(NC(=O)c2ccc(CN3CCN(c4ccccc4)CC3)cc2)cc1
Cc1ccc(S(=O)(=O)N(C)CC(=O)N2CCc3ccccc32)cc1
Cn1c(=O)c2c(nc(NCCO)n2CCc2ccccc2)n(C)c1=O
Cc1ccc(Nc2nc(CSc3nnc(-c4cccnc4)n3-c3ccccc3C)cs2)cc1
c1ccc(-c2nnc(OCCN3CCOCC3)c3ccccc23)cc1
Cc1nonc1NC(=O)CSc1nnc(-c2ccoc2C)n1C
Cc1nc2ccccc2n1CSc1ccccc1
CCN=c1scc(C)n1/N=C/c1ccc(O)c(O)c1O
OCCC1CN(Cc2ccc3ncccc3c2)CCN1Cc1ccccc1 (configuration not stated)
CCOc1ccc(C2=Nn3c(nnc3-c3ccccn3)SC2)cc1
COC(=O)c1sc(NC(=O)c2ccc(Cn3cc(Cl)cn3)o2)c(C#N)c1C
COc1ccc(N2C(=O)C(Cl)=C(Nc3ccccc3O)C2=O)cc1
O=C(CCCN1C(=O)c2cccc3cccc(c23)C1=O)N1CCN(c2ccccn2)CC1
Cc1ccc(-c2cc(C(=O)Nc3cc(C(=O)O)ccc3C)c3ccccc3n2)cc1
C/C(=C\c1ccco1)C1Nc2cccc3cccc(c23)N1
CCCn1c(SCC(=O)Nc2ccccc2-c2ccccc2)nnc1-c1ccoc1C
Cc1c(NC2=C(Cl)C(=O)N(c3ccccc3Cl)C2=O)c(=O)n(-c2ccccc2)n1C
CCOc1ccccc1/C=N/NC(=O)CNC(=O)COc1ccccc1
Fc1ccccc1-n1cc(-c2ccccc2)[nH]c1=S
CCN(CC)c1ccc(Nc2nc(N3CCOCC3)c3ccccc3n2)cc1
Cc1cc(C)nc(SCc2cc(=O)c(OC(=O)c3cccc([N+](=O)[O-])c3)co2)n1
Cc1ccc(-c2cc(-c3ccc4c(c3)OCO4)c(C#N)c(N)n2)o1
C=CCn1c(C)c(C(C)=O)c(N2CCOCC2)nc1=S
CCOc1ccccc1C(=O)NC1CC2CCCC(C1)N2C1CC1 (configuration not stated)
COc1ccc2cc(CN(CCc3ccccc3)Cc3nnnn3CC3CCCO3)c(=O)[nH]c2c1 (configuration not stated)
c1ccc(-c2nc(N3CCCCC3)nc3ccccc23)cc1
Cc1cc(Cl)ccc1N=c1ssnc1Cl
NCC(c1ccccc1)c1c[nH]c2ccccc12 (configuration not stated)
O=C(Cc1ccc(-c2ccccc2)cc1)NC1CCCC1
CC(=O)NC(=O)Nc1sc(=S)n(C)c1C
CCN1CCN(c2cc(C)c3cc(NC(=S)N4CCCCC4)ccc3n2)CC1
COc1cc2[nH]c(=S)nc(NCCCOC(C)C)c2cc1OC
CC(=O)c1ccc2c(c1)C1C=CCC1C(c1ccncc1)N2 (configuration not stated)
CCn1c(SCC(=O)Nc2ccc(C)cc2)nnc1-c1ccc(O)cc1
CN(C)S(=O)(=O)N(CC(=O)Nc1ccccc1C(F)(F)F)c1ccccc1
CCc1nnc(NS(=O)(=O)c2ccc(N=CC3=C(O)CC(C)(C)CC3=O)cc2)s1
Cc1cccc(C(=O)N=c2c(C#N)cc3c(=O)n4cccc(C)c4nc3n2Cc2ccco2)c1
CCc1ccc(/C=C/C(=O)c2cc(Br)ccc(=O)c2O)cc1
O=C(NC1=C(NC2CCS(=O)(=O)C2)C(=O)c2ccccc2C1=O)c1ccccc1 (configuration not stated)
Cc1ccc(S(=O)(=O)N2CCCCC2)cc1NC(=O)COC(=O)c1ccccc1F
S=C1NC2=C(CCC/C2=C\c2ccccc2)C(c2ccccc2)N1 (configuration not stated)
O=C(NCCc1ccccc1)c1ccc2nc(-c3ccco3)c(-c3ccco3)nc2c1
O=C(CCc1ccccc1)N1CCN(c2ccccn2)CC1
Cc1ccc(C(=O)N(CCCN(C)C)c2nc3ccc(Cl)cc3s2)cc1C
CCOC(=O)C1(Cc2cccc(OC)c2)CCN(Cc2cccc(OC)c2OC)CC1
C1=CC2c3ccccc3NC(c3ccncc3)C2C1 (configuration not stated)
CC(C)COC(=O)/C(C#N)=C/c1cn(Cc2ccccc2)c2ccccc12
CCOc1cccc(CNc2ccc(O)cc2)c1OCc1ccccc1Cl
CCOC(=O)c1ccc(NC(=O)CSCCC(=O)O)cc1
Cn1cc(CN2C[C@]3(C)C[C@H]2CC(C)(C)C3)c(-c2ccc3c(c2)OCCO3)n1
CNc1ccc(Br)cc(C(=O)/C=C/c2ccc(OC)cc2)c1=O
OC(COc1ccc2ccccc2c1)CN1CCCC1 (configuration not stated)
CCCCC(=O)Nc1ccc(C(=O)N2CCC(C(=O)OCC)CC2)cc1
CC1(C)Cc2c(ccc3ccccc23)/C(=C/C(=O)N2CCCCC2)N1
Cc1nc(=S)c2ccccc2[nH]1
COCCn1nnnc1CN(Cc1ccco1)Cc1cc2cc3c(cc2[nH]c1=O)OCO3
CCOC(=O)N1CCC(c2cc(=O)n(-c3ccccc3)[nH]2)CC1
CCN(CC)c1ccc(NC(=O)COc2ccccc2C#N)cc1S(=O)(=O)Nc1ccccc1OC
CC(C)C(=O)NC(c1ccccc1)c1cc([N+](=O)[O-])c2cccnc2c1O (configuration not stated)
Cc1cc(Cl)c(S(=O)(=O)NCC2CCCO2)cc1OCC(N)=O (configuration not stated)
O=C(Nc1cccc(Cl)c1)Nc1ccc(Cl)cn1
O=C(O)c1ccccc1NSc1ccccc1[N+](=O)[O-]
FC(F)(F)c1ccc2c(c1)C1C=CCC1C(c1ccncc1)N2 (configuration not stated)
CS(=O)(=O)NN1C(=O)c2ccccc2NC1c1cccs1 (configuration not stated)
Cc1sc(NC(=O)Cn2cnnn2)nc1-c1ccc(Cl)cc1
